In patent US20240308968A1, “FUNGICIDAL SUBSTITUTED HETEROCYCLES” (FMC Corporation, priority 2021, published 2024):

Legend:
Assay type in all cases: in vivo
Conditions in all cases: 100 = 100% disease control, 0 = no control
Alternaria solani = test: Test F: preventive spray on tomato seedlings, tomato early blight disease rating
Summary of the method: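 Tomato seedlings were sprayed to run-off with compound suspensions in ppm (acetone/water with PEG400 surfactant) and inoculated with Alternaria solani spores the next day. Plants were held 48 h saturated at 27 °C, then 3 days at 20 °C. Disease was rated visually, with 100 as full control and 0 as none, relative to controls.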

[1] = system: Blumeria graminis f. sp. Tritici; test: Test C: preventive spray on wheat seedlings, wheat powdery mildew disease rating
Summary of the method: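 Wheat seedlings sprayed to run-off with test suspension (acetone 3% dissolution, then acetone/water 50/50 with 50–250 ppm PEG400), inoculated next day with Blumeria graminis spore dust. Held 8 days at 20° C in growth chamber, then visually rated (100 = full control, 0 = none, relative to controls).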

Phakopsora pachyrhizi = test: Test D: preventive spray on soybean seedlings, Asian soybean rust disease rating
Summary of the method: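 Compounds in acetone/water (50/50) with 50–250 ppm PEG400 sprayed to run-off on soybean seedlings; inoculated next day with P. pachyrhizi spores, held 24 h saturated at 22° C, then 8 days at 22° C before visual disease rating.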

Zymoseptoria tritici = test: Test A: preventive spray on wheat seedlings, wheat leaf blotch disease rating
Summary of the method: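 Compounds in acetone/water (50/50) with 50–250 ppm PEG400, sprayed to run-off on wheat seedlings. Inoculated next day with Z. tritici spores, 48 h saturated atmosphere at 24 °C, then 17 days at 20 °C before disease rating.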

[2] = system: Puccinia recondita f. sp. Tritici; test: Test B: preventive spray on wheat seedlings, wheat leaf rust disease rating
Summary of the method: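 Compounds in acetone/water (50/50) with 50-250 ppm PEG400 sprayed to run-off on wheat seedlings; inoculated with P. recondita spores next day. Held 24 h saturated at 20° C., then 7 days in growth chamber at 20° C. before rating; 100 = full control, 0 = none versus controls.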

Botrytis cinerea = test: Test E: preventive spray on tomato seedlings, tomato Botrytis disease rating
Summary of the method: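 Tomato seedlings sprayed to run-off with compound suspended in acetone/water with PEG400 surfactant, then inoculated next day with Botrytis cinerea spores. Held 48 h saturated at 20 °C, then 3 days at 24 °C; disease rated visually, 0 to 100% control relative to controls.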

[3] = Alternaria solani, 120 h, 50 ppm
[4] = Blumeria graminis, 192 h, 50 ppm
[5] = Phakopsora pachyrhizi, 216 h, 50 ppm
[6] = Zymoseptoria tritici, 456 h, 50 ppm
[7] = Puccinia recondita, 192 h, 50 ppm
[8] = Botrytis cinerea, 120 h, 50 ppm

Row | SMILES | Test F disease control rating (Alternaria solani; 50 ppm) | Test C disease control rating ([1]; 50 ppm) | Test D disease control rating (Phakopsora pachyrhizi; 50 ppm) | Test A disease control rating (Zymoseptoria tritici; 50 ppm) | Test B disease control rating ([2]; 50 ppm) | Test E disease control rating (Botrytis cinerea; 50 ppm) | further results
1 | COc1cc(OC)c(Cl)c(-n2nc(CO)c(=O)c(Cl)c2-c2ccc(F)cc2Cl)c1 [Compound 99] |  |  |  |  |  |  | Test F disease control rating (Alternaria solani; 250 ppm): 96%; Test C disease control rating ([1]; 250 ppm): 95%; Test D disease control rating (Phakopsora pachyrhizi; 250 ppm): 99%; Test A disease control rating (Zymoseptoria tritici; 250 ppm): 100%; Test B disease control rating ([2]; 250 ppm): 100%; Test E disease control rating (Botrytis cinerea; 250 ppm): 93%
2 | CCOC(=O)c1nn(-c2cc(OC)cc(OC)c2Cl)c(-c2ccc(F)cc2)c(C(=O)OCC)c1=O [Compound 126] | 0% | 0% | 0% | 0% | 28% | 0% | 
3 | CCc1nc(C)nc(-c2cc(OC)cc(OC)c2Cl)c1-c1ccc(F)cc1Cl [Compound 56, 4-(2-chloro-3,5-dimethoxyphenyl)-5-(2-chloro-4-fluorophenyl)-6-ethyl-2-methylpyrimidine] |  |  |  |  |  |  | pest or weed control at 50 ppm (Alternaria solani; [3]): 91%; pest or weed control at 50 ppm [1, 4]: 100%; pest or weed control at 50 ppm (Phakopsora pachyrhizi; [5]): 88%; pest or weed control at 50 ppm (Zymoseptoria tritici; [6]): 100%; pest or weed control at 50 ppm [2, 7]: 100%; pest or weed control at 50 ppm (Botrytis cinerea; [8]): 94%
4 | Cc1c(-c2ccc(F)cc2Cl)c(-c2sc(Br)cc2Br)nn(C)c1=O [Compound 16] | 0% | 64% | 0% | 99% | 68% | 37% | 
5 | COc1cc(-c2cc(C#N)c(=O)n(C)c2-c2c(F)cc(F)cc2F)cc(OC)c1Cl [Compound 71, 5-(4-chloro-3,5-dimethoxyphenyl)-1,2-dihydro-1-methyl-2-oxo-6-(2,4,6-trifluorophenyl)-3-pyridinecarbonitrile] |  |  |  |  |  |  | pest or weed control at 50 ppm (Alternaria solani; [3]): 0%; pest or weed control at 50 ppm [1, 4]: 47%; pest or weed control at 50 ppm (Phakopsora pachyrhizi; [5]): 92%; pest or weed control at 50 ppm (Zymoseptoria tritici; [6]): 87%; pest or weed control at 50 ppm [2, 7]: 99%; pest or weed control at 50 ppm (Botrytis cinerea; [8]): 63%
6 | COc1cc(OC)cc(-c2ncncc2-c2c(F)cc(F)cc2F)c1 [Compound 40] |  |  |  |  |  |  | Test F disease control rating (Alternaria solani; 250 ppm): 0%; Test C disease control rating ([1]; 250 ppm): 69%; Test D disease control rating (Phakopsora pachyrhizi; 250 ppm): 0%; Test A disease control rating (Zymoseptoria tritici; 250 ppm): 0%; Test B disease control rating ([2]; 250 ppm): 9%; Test E disease control rating (Botrytis cinerea; 250 ppm): 0%
7 | COc1cc(OC)cc(-n2c(-c3ccc(F)cc3Cl)c(Cl)c(=O)n(C)c2=O)c1 [Compound 38, 5-chloro-6-(2-chloro-4-fluorophenyl)-1-(3,5-dimethoxyphenyl)-3-methyl-2,4(1H,3H)-pyrimidinedione] |  |  |  |  |  |  | pest or weed control at 50 ppm (Alternaria solani; [3]): 0%; pest or weed control at 50 ppm [1, 4]: 0%; pest or weed control at 50 ppm (Phakopsora pachyrhizi; [5]): 0%; pest or weed control at 50 ppm (Zymoseptoria tritici; [6]): 0%; pest or weed control at 50 ppm [2, 7]: 96%; pest or weed control at 50 ppm (Botrytis cinerea; [8]): 70%
8 | COc1cc(OC)c(Cl)c(-n2nc(NC(=O)OC(C)(C)C)c(=O)c(C)c2-c2ccc(F)cc2Cl)c1 [Compound 86] |  |  |  |  |  |  | Test F disease control rating (Alternaria solani; 250 ppm): 0%; Test C disease control rating ([1]; 250 ppm): 0%; Test D disease control rating (Phakopsora pachyrhizi; 250 ppm): 0%; Test A disease control rating (Zymoseptoria tritici; 250 ppm): 83%; Test B disease control rating ([2]; 250 ppm): 98%; Test E disease control rating (Botrytis cinerea; 250 ppm): 43%
9 | COc1ccc(Cl)c(-n2nc(Br)c(=O)c(Cl)c2-c2ccc(F)cc2Cl)c1 [Compound 101] | 98% | 89% | 99% | 98% | 99% | 98% | 
10 | COc1cc(OC)cc(-n2nc(CCl)c(=O)c(C)c2-c2ccc(F)cc2F)c1 [Compound 25] | 0% | 43% | 75% | 18% | 0% | 34% | 
11 | Cn1nc(-c2cccnc2)c(-c2c(F)cccc2F)cc1=O [Compound 2] | 0% | 0% | 0% | 0% | 0% | 0% | 
12 | COc1ccc(Cl)c(-c2cc(C#N)c(=O)n(C)c2-c2ccc(F)cc2Cl)c1 [Compound 154] | 0% | 35% | 59% | 100% | 98% | 98% | 
13 | COc1ccc(Cl)c(-c2nn(C)c(=O)c(C)c2-c2ccsc2C)c1 [Compound 18] | 0% | 93% | 13% | 96% | 92% | 97% | 
14 | Cc1cnn(-c2nn(C)c(=O)c(C)c2-c2ccc(F)cc2Cl)c1 [Compound 11] | 24% | 97% | 0% | 70% | 0% | 91% | 
15 | COc1cc(OC)c(Cl)c(-c2nc(Cl)nc(C)c2-c2c(F)cccc2F)c1 [Compound 48, 2-chloro-4-(2-chloro-3,5-dimethoxyphenyl)-5-(2,6-difluorophenyl)-6-methylpyrimidine] |  |  |  |  |  |  | pest or weed control at 250 ppm (Alternaria solani; Alternaria solani, 120 h, 250 ppm): 100%; pest or weed control at 250 ppm ([1]; Blumeria graminis, 192 h, 250 ppm): 100%; pest or weed control at 250 ppm (Phakopsora pachyrhizi; Phakopsora pachyrhizi, 216 h, 250 ppm): 100%; pest or weed control at 250 ppm (Zymoseptoria tritici; Zymoseptoria tritici, 456 h, 250 ppm): 100%; pest or weed control at 250 ppm ([2]; Puccinia recondita, 192 h, 250 ppm): 100%; pest or weed control at 250 ppm (Botrytis cinerea; Botrytis cinerea, 120 h, 250 ppm): 99%
16 | Cc1sccc1-c1nn(C)c(=O)c(C)c1-c1ccc(F)cc1Cl [Compound 8] | 99% | 99% | 96% | 99% | 100% | 94% | 
17 | CCOC(=O)c1c(-c2ccc(F)cc2F)n(-c2cc(OC)cc(OC)c2)nc(C(=O)O)c1=O [Compound 89] |  |  |  |  |  |  | Test F disease control rating (Alternaria solani; 250 ppm): 0%; Test C disease control rating ([1]; 250 ppm): 0%; Test D disease control rating (Phakopsora pachyrhizi; 250 ppm): 0%; Test A disease control rating (Zymoseptoria tritici; 250 ppm): 0%; Test B disease control rating ([2]; 250 ppm): 0%; Test E disease control rating (Botrytis cinerea; 250 ppm): 0%
18 | COc1cc(OC)cc(-n2nc(CO)c(=O)c(C)c2-c2ccc(F)cc2Cl)c1 [Compound 91] |  |  |  |  |  |  | Test F disease control rating (Alternaria solani; 250 ppm): 17%; Test C disease control rating ([1]; 250 ppm): 0%; Test D disease control rating (Phakopsora pachyrhizi; 250 ppm): 75%; Test A disease control rating (Zymoseptoria tritici; 250 ppm): 0%; Test B disease control rating ([2]; 250 ppm): 99%; Test E disease control rating (Botrytis cinerea; 250 ppm): 79%
19 | Cc1c(-c2ccc(F)cc2Cl)c(-c2nn(C)cc2Cl)nn(C)c1=O [Compound 22] | 0% | 98% | 53% | 94% | 93% | 94% | 
20 | COc1cc(OC)c(Cl)c(-n2nc(C)c(=O)c(C)c2-c2ccc(F)cc2Cl)c1 [Compound 84] | 100% | 99% | 100% | 100% | 100% | 94% | 
21 | COc1cc(OC)c(Br)c(-c2c(-c3ccc(F)cc3F)noc(=O)c2C)c1 [Compound 63] | 0% | 56% | 0% | 100% | 100% | 97% | 
